Values joined by “and” are separate entries in the source; they are usually repeats but may differ in a detail not shown here. Equal values may be shown once.
Columns and labels:
[1] = system: wheat powdery mildew fungus; experiment: Induction of wheat against infection by powdery mildew fungi (greenhouse pots); format: in vivo, wheat (NAU0686); conditions: for Disease index of the susceptible wheat / Relative immune effect: concentration greater than 1,000 nm
Method: […] A blank control was additionally set. After germination of wheat (NAU0686) seeds was accelerated, the wheat was planted in a sterilized soil culture bowl and cultured in a greenhouse at 23±1° C. with the illumination for 12 h. When the seedlings grew to a stage of one true leaf and one terminal bud, the wheat seedlings were sprayed with the 2-amino-3-indolyl butyric acid solutions at the above concentrations on stems and leaves. The treatment was repeated once every 24 h and a total of two treatments was performed. Fresh wheat powdery mildew fungus spores were evenly scattered on the wheat leaves after 24 h. 3 pots of the plants were treated each time with 20 plants in each pot. After 10 d, the disease grade of the wheat after each treatment was investigated. The disease degree was recorded according to the wheat powdery mildew grading standard in the Guidelines for Field Efficacy Trials of Pesticides (I), and the disease indexes and the relative immune effects were calculated by using the same calculation formula as that of those of the tomato spotted wilt.
(§1) Grading standard of wheat powdery mildew (taking leaves as units): • grade 1: the area of the disease spots accounted 5% or less of that of the whole leaves; • grade 3: the area of the disease spots accounted for 6%-15% of that of the whole leaves; and • grade 5: the area of the disease spots accounted for 16%-25% of that of the whole leaves; and • grade 7: the area of the disease spots accounted for 26%-50% of that of the whole leaves; and • grade 9: the area of the disease spots accounted for 50% or more of that of the whole leaves.

[2] = system: wheat powdery mildew; experiment: Field test of inducing wheat against infection by powdery mildew fungi; format: in vivo; conditions: 1,000 nm
Method: Stems and leaves were sprayed with a 2-amino-3-indolyl butyric acid solution (0.02% by volume of a surfactant Tween 20 was added) at the concentration of 1,000 nm in a filed, sprayed with 0.02% by volume of the surfactant tween 20 as an auxiliary agent control and sprayed with 30 g/mu of ATaiLing as a positive control. Each treatment was repeated three times. The disease grade of the wheat after each treatment was investigated. The disease degree was recorded according to the wheat powdery mildew grading standard in the Guidelines for Field Efficacy Trials of Pesticides (I), and the disease indexes and the relative immune effects were calculated by using the same calculation formula as that of those of the tomato spotted wilt. After the harvested wheat seeds were air-dried, the thousand-grain weights of the wheat seeds after different treatments were measured.
as §1

[3] = system: Arabidopsis thaliana; experiment: Arabidopsis thaliana under high temperature stress; format: in vivo; set-up: Heat damage index: scale not given here; conditions: for Heat damage index: 45° C. 12 h, recovery 7 d; for PIABS: photosynthetic performance index after 45° C. 12 h; for Heat damage index reduced by: vs control group
Method: Arabidopsis thaliana seeds were sown in a pot with the diameter of 8.5 cm according to about 50 seeds per pot and planted in a greenhouse at 25° C. with the humidity of 60%-70% and the light intensity of 100 μmolm^−2s^−1 (16 h light/8 h dark). The treatment was started when the Arabidopsis thaliana normally grew for 21 d. Concentrations at 0 nm, 1 nm, 10 nm, 100 nm and 1,000 nm were set in the experiment. Meanwhile, 0.02% Tween 20 was added as a surfactant and four replicates were set. The spraying treatment was the same as that of the ryegrass in example 5. 24 h after the second spraying, the Arabidopsis thaliana was transferred to an illumination incubator at 45° C. for a high temperature stress treatment for 12 h. The chlorophyll fluorescences of the Arabidopsis thaliana leaf wafers were measured by using the plant efficiency Handy-PEA. The plants were taken out and transferred to the greenhouse at 25° C. for recovery for 7 d. The damage conditions of the plants were observed and counted, and the heat damage grades were calculated.

[4] = treatment concentration 10,000 nm
[5] = compared with the auxiliary agent control

SMILES | Disease index of the susceptible wheat [1] | Relative immune effect [1] | Relative immune effect (%) ([1]; treatment concentration 10 nm) | Relative immune effect (%) ([1]; treatment concentration 100 nm) | Relative immune effect (%) [1, 4] | Heat damage index ([3]; 1 nm) | PIABS ([3]; 1 nm) [e] | Heat damage index ([3]; 10 nm) | PIABS ([3]; 10 nm) [days] | Heat damage index ([3]; 100 nm) | PIABS ([3]; 100 nm) [c] | PIABS increased by (times) compared with the control group ([3]; 1,000 nm) [times] | Heat damage index ([3]; 1,000 nm) | PIABS ([3]; 1,000 nm) [b] | Heat damage index reduced by ([3]; 1,000 nm) [%] | also measured
CC(c1c[nH]c2ccccc12)C(N)C(=O)O (centres unmarked) | lower than 50 | exceeded 50% | 22.04 | 32.59 | 68.42% and 68.43% | 58 | 0.90 ± 0.04 | 46 | 1.14 ± 0.15 | 33 | 3.28 ± 0.20 | 20 | 10 | 7.13 ± 0.23 | 65 | Relative immune effect (%) ([1]; treatment concentration 1,000 nm): 53.58%; Relative immune effect (%) [2]: 40.55%; Thousand-grain weight [2]: 27.39 g; Thousand-grain weight (g) [2]: 27.39 ± 0.29a g; Relative immune effect improved by ([2]; compared with Altailing control group): 12%; Relative immune effect improved by [2, 5]: 40%; Thousand-grain weight increased by [2, 5]: 10.80%; Disease index reduced by ([2]; vs auxiliary agent control group): 40.55%
CC1CCNC1C(=O)O (centres unmarked) [3-methylpyrrolidine-2-carboxylic acid] | lower than 50 | exceeded 50% | 25.04 | 43.73 | 68.57% | 48 | 1.87 ± 0.03 | 37 | 4.06 ± 0.17 | 30 | 6.53 ± 0.23 | 23 | 8 | 10.26 ± 0.46 | 68 | –

Reference: patent US20250204528A1, “USE OF 2-AMINO-3-INDOLYL BUTYRIC ACID OR 3-METHYLPYRROLIDINE-2-CARBOXYLIC ACID AS PLANT IMMUNITY ELICITOR” (NANJING TIANNONG BIOTECHNOLOGY CO., LTD, priority 2021, published 2025)
